Results from patent US20240245694A1, “Tricyclic Compounds and their Uses” (Novartis AG, priority 2022, published 2024).

Legend:
[1] = molecular target: WRN helicase (core helicase motif aa N517-P1238) (Homo sapiens (Human), UniProt Q14191); test: WRN ATPase assay (ADP-Glo), DNA dependent ATP hydrolysis; assay type: biochemical; conditions: 3 hours pre-incubation, 300 micromolar ATP, FLAP26 ssDNA; geometric means of at least 2 determinations
Summary of the method: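 Uses the WRN core helicase (aa N517-P1238) with single-strand 45-mer FLAP26 DNA in Tris pH 7.5, MgCl2, NaCl, BSA and pluronic buffer. Compound was pre-incubated 3 h with enzyme and ATP; reaction then run with 10 nM WRN, 0.2 nM FLAP26 and 300 µM ATP for 30 min at room temperature. ADP quantified by ADP-Glo luminescence; IC50 from duplicate 4-parameter fits, geometric mean of ≥2 runs.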

[2] = Tolerability (body weight) in the SW48 xenograft study; assay type: in vivo, Crl:NU(NCr)-Foxn1nu nude mice
Description: Experiments were performed in female Crl:NU(NCr)-Foxn1^nu-homozygous nude mice (Charles River). Animals were housed under Optimized Hygienic Conditions in Allentown XJ cages (IVC, max. 6 mice per cage) with food and water at libitum and a 12 h:12 h light:dark cycle. Animals were allowed to acclimatize for at least 1 week before being enrolled in the experimental design. The study described here was performed according to license 1975 approved by the Basel Cantonal Veterinary Office.
Amorphous sodium salt of test compound (corrected by salt factor) was dissolved in an aqueous 20% w/v solution of 2-hydroxypropyl-beta-cyclodextrin (HPBCD). A range of concentrations was prepared by serial dilution starting from the solution at highest concentration for the highest dose in the study.
Treatment was initiated about two weeks post tumor cell inoculation, when the xenografts had reached a mean volume of approximately 200 mm^3. The tumor bearing animals were randomized based on tumor volumes into experimental groups with 6 animals per group and treatment was initiated. Compounds were dosed orally (p.o.) once per day (qd) at 1, 3, 5 or 10 mg/kg (Example 18A) and at 0.1, 0.3, 1, 3 mg/kg (Example 21A). In addition, a control group treated once per day with vehicle (20% 2-hydroxypropyl-β-cyclodextrin) was included in each study. Tumor volumes and body weights were measured two times per week until the study termination.

[3] = Storage stability of the solid at RT; assay type: physicochemical; conditions: stored at RT under ambient atmosphere for several months; degradation product Example 25
Excerpt: 2.60 g (3.51 mmol) of Example 21A (7R,9R)—N-(2-chloro-4-(trifluoromethyl)phenyl)-2-(3,6-dihydro-2H-pyran-4-yl)-6-((1S,6S)-5-(5-hydroxy-6-methylpyrimidine-4-carbonyl)-2,5-diazabicyclo[4.2.0]octan-2-yl)-7-methyl-5-oxo-5,7,8,9-tetrahydropyrrolo[1,2-c][1,2,4]triazolo[1,5-a]pyrimidine-9-carboxamide was stored at RT under ambient atmosphere for several months, by which the purity decreased to 86%. The degradation product title compound Example 25 was isolated by column chromatography (RediSep Column: Silica 80 g, eluent DCM:MeOH 100:0 to 90:10). The product containing fractions were combined and concentrated under reduced pressure to give a yellow foam. This foam was further purified by chiral SFC (instrument: Waters Prep SFC100-MS; column: Chiralpak IB-N 250 mm×30 mm 5 μm; eluent: A: 55% MeOH+0.1% NH3, B: 45% scCO2; flow rate: 78.0 mL/min; detection: DAD; injection volume: 1.1 mL; gradient: isocratic A: 55%, B: 45%).

Sequence of WRN helicase (core helicase motif aa N517-P1238) (Q14191 517-1238): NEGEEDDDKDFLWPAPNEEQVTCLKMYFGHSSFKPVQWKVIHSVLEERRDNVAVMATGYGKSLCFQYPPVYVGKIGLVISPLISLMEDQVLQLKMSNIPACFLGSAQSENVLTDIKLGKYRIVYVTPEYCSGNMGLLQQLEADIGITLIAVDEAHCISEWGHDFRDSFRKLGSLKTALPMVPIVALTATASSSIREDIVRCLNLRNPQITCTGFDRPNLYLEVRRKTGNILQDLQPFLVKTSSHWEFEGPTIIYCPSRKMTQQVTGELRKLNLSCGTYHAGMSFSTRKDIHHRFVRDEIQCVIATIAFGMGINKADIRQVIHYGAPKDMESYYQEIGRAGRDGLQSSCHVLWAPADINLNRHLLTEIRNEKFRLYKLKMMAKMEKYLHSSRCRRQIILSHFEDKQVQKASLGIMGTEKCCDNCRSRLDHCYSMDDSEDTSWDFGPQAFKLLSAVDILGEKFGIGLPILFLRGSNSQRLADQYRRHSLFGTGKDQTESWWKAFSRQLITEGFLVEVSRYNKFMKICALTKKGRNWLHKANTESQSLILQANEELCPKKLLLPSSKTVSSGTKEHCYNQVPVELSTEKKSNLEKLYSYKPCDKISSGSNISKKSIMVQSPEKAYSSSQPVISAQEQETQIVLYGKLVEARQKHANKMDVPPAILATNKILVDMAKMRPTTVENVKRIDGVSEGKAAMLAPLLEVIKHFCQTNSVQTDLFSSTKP

| SMILES | IC50 [1] [nM] | body weight gain, of the body weight at start ([2]; 1, 3, 5 or 10 mg/kg p.o. qd, after the initial body weight loss) | initial body weight loss among individual animals ([2]; 1, 3, 5 or 10 mg/kg p.o. qd, first ten days of treatment) [%] | tolerability ([2]; 0.1, 0.3, 1, 3 mg/kg p.o. qd, throughout the study) | body weight loss among individual animals on individual occasions ([2]; 0.1, 0.3, 1, 3 mg/kg p.o. qd, not dose-dependent) [%] | purity after storage [3] [%] |
| --- | --- | --- | --- | --- | --- | --- |
| Cc1ncnc(C(=O)N2CCN(c3c4n(c5nc(C6=CCOCC6)nn5c3=O)[C@@H](C(=O)Nc3ccc(C(F)(F)F)cc3Cl)C[C@H]4C)C[C@H]2C)c1O [Example 18A, (7R,9R)—N-(2-chloro-4-(trifluoromethyl)phenyl)-2-(3,6-dihydro-2H-pyran-4-yl)-6-((R)-4-(5-hydroxy-6-methylpyrimidine-4-carbonyl)-3-methylpiperazin-1-yl)-7-methyl-5-oxo-5,7,8,9-tetrahydropyrrolo[1,2-c][1,2,4]triazolo[1,5-a]pyrimidine-9-carboxamide] | 50 | up to 18% | ≤ 14 | – | – | – |
| Cc1ncnc(C(=O)N2CCN(c3c4n(c5nc(C6=CCOCC6)nn5c3=O)[C@@H](C(=O)Nc3ccc(C(F)(F)F)cc3Cl)C[C@H]4C)[C@H]3CC[C@@H]32)c1O [Example 21A, (7R,9R)—N-(2-chloro-4-(trifluoromethyl)phenyl)-2-(3,6-dihydro-2H-pyran-4-yl)-6-((1S,6S)-5-(5-hydroxy-6-methylpyrimidine-4-carbonyl)-2,5-diazabicyclo[4.2.0]octan-2-yl)-7-methyl-5-oxo-5,7,8,9-tetrahydropyrrolo[1,2-c][1,2,4]triazolo[1,5-a]pyrimidine-9-carboxamide] | 30 | – | – | well tolerated | ≤ 15 | 86 |
